Test results reported in ChEMBL document CHEMBL4229367, “Identification of multi-target inhibitors of leukotriene and prostaglandin E2 biosynthesis by structural tuning of the FLAP inhibitor BRP-7” (Eur J Med Chem, 2018).

Legend:
[1] = biological target: T1, Arachidonate 5-lipoxygenase-activating protein (Homo sapiens) (UniProt P20292); test: Inhibition of FLAP in A23187-stimulated human neutrophils assessed as remaining enzyme activity by measuring 5-LO product formation at 0.1 uM preincubated for 15 mins followed by A23187 and arachidonic acid addition and measured after 10 mins by UV based RP-HPLC analysis (reference value: 100%)
T1 sequence (whole entry): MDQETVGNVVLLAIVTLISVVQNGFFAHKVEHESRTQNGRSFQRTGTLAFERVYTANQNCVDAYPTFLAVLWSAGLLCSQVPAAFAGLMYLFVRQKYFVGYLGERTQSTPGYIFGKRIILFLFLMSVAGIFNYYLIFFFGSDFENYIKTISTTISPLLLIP

[2] = biological target: T1, Arachidonate 5-lipoxygenase-activating protein (Homo sapiens); test: Inhibition of FLAP in A23187-stimulated human neutrophils assessed as remaining enzyme activity by measuring 5-LO product formation at 1 uM preincubated for 15 mins followed by A23187 and arachidonic acid addition and measured after 10 mins by UV based RP-HPLC analysis (reference value: 100%)
[3] = biological target: T2, Arachidonate 5-lipoxygenase-activating protein (Homo sapiens, UniProt P20292); test: Inhibition of FLAP in A23187-stimulated human neutrophils assessed as reduction in 5-LO product formation preincubated for 15 mins followed by A23187 and arachidonic acid addition and measured after 10 mins by UV based RP-HPLC analysis
T2 sequence (P20292 whole entry): T1 sequence (whole entry)

[4] = biological target: T3, Prostaglandin E synthase (Homo sapiens) (UniProt O14684); test: Inhibition of mPGES1 in IL-1beta-stimulated human A549 cell microsomal fractions assessed as reduction in PGE2 production at 3 uM preincubated for 15 mins followed by PGH2 substrate addition and measured after 1 min by RP-HPLC analysis relative to control
T3 sequence (whole entry): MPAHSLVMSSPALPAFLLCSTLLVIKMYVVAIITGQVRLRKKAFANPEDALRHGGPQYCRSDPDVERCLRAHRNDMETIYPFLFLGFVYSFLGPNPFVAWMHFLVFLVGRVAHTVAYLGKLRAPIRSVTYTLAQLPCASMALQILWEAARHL

[5] = biological target: T1, Arachidonate 5-lipoxygenase-activating protein (Homo sapiens); test: Inhibition of FLAP in A23187-stimulated human neutrophils assessed as remaining enzyme activity by measuring 5-LO product formation at 10 uM preincubated for 15 mins followed by A23187 and arachidonic acid addition and measured after 10 mins by UV based RP-HPLC analysis (reference value: 100%)
[6] = biological target: T1, Arachidonate 5-lipoxygenase-activating protein (Homo sapiens); test: Inhibition of FLAP in A23187-stimulated human neutrophils assessed as reduction in 5-LO product formation at 1 uM preincubated for 15 mins followed by A23187 and arachidonic acid addition and measured after 10 mins by UV based RP-HPLC analysis
[7] = biological target: T4, Polyunsaturated fatty acid 5-lipoxygenase (Homo sapiens, UniProt P09917); test: Inhibition of recombinant human 5-LO expressed in Escherichia coli BL21 incubated for 15 mins prior to prewarming for 30 secs followed by CaCl2+ and arachidonic acid addition and measured after 10 mins by RP-HPLC analysis
T4 sequence (P09917 whole entry): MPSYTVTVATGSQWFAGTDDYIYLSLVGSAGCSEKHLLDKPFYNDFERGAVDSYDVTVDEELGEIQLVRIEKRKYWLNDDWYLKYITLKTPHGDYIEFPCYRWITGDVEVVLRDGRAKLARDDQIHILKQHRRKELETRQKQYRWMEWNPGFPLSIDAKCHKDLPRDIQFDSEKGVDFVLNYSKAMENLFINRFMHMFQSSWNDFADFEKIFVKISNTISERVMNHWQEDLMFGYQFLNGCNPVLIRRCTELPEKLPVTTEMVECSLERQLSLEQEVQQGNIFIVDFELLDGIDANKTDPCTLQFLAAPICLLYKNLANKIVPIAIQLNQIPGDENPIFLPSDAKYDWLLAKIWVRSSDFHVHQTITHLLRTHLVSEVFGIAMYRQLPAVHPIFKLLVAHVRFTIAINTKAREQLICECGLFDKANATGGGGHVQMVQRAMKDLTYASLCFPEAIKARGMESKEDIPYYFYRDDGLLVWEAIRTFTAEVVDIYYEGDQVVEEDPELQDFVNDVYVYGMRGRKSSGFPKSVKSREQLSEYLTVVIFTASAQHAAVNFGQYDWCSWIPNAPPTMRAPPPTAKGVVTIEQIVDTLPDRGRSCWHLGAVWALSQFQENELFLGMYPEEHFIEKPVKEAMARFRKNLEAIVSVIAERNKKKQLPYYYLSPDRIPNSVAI

[8] = biological target: T3, Prostaglandin E synthase (Homo sapiens); test: (§1) Inhibition of mPGES1 in IL-1beta-stimulated human A549 cell microsomal fractions assessed as reduction in PGE2 production preincubated for 15 mins followed by PGH2 substrate addition and measured after 1 min by RP-HPLC analysis relative to control
Prostaglandin E synthase = biological target: T5, Prostaglandin E synthase (Homo sapiens, UniProt O14684); test: as §1
T5 sequence (O14684 whole entry): T3 sequence (whole entry)

Leukotriene C4 synthase = biological target: T6, Leukotriene C4 synthase (Homo sapiens, UniProt Q16873); test: Inhibition of human LTC4 synthase expressed in HEK293 cell microsomes preincubated for 10 mins followed by LTA4-methyl ester addition and measured after 10 mins by UPLC-MS/MS analysis
T6 sequence (Q16873 whole entry): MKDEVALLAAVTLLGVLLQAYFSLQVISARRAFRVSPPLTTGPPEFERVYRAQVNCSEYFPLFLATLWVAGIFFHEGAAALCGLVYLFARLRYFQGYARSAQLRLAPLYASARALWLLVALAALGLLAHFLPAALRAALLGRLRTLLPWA

[9] = biological target: T7, Polyunsaturated fatty acid 5-lipoxygenase (Homo sapiens) (UniProt P09917); conditions: 0.3 uM
T7 sequence (whole entry): T4 sequence (P09917 whole entry)
Description: Inhibition of recombinant human 5-LO expressed in Escherichia coli BL21 at 0.3 uM incubated for 15 mins prior to prewarming for 30 secs followed by CaCl2+ and arachidonic acid addition and measured after 10 mins by RP-HPLC analysis

| SMILES | Activity [1] [%] | Activity [2] [%] | IC50 [3] [nM] | inhibition [4] [%] | further results |
| --- | --- | --- | --- | --- | --- |
| N#Cc1ccc2c(c1)nc(CCc1ccc(-c3cnc(N)cn3)cc1)n2Cc1ccccc1Cl | 72.7 | 3.5 | 260 | – | – |
| N#Cc1ccc2c(c1)nc(CCc1ccc(-c3ccc(N)nn3)cc1)n2Cc1ccccc1Cl | 85.6 | 25.6 | 660 | – | – |
| CC(C)Cc1ccc(C(C)c2nc3cc(C(=O)O)ccc3n2Cc2ccccc2Cl)cc1 (stereo unspecified) | 71.1 | 0 | 280 | > 50 | – |
| N#Cc1ccc2c(c1)nc(NCc1ccc3[nH]ccc3c1)n2Cc1ccccc1Cl | 92.3 | 84.7 | 3800 | – | Activity [5]: 44% |
| CC(C)Cc1ccc(C(C)c2nc3cc(CC(=O)O)ccc3n2Cc2ccccc2Cl)cc1 (stereo unspecified) | 91.4 | 16.1 | 450 | > 50 | – |
| CC(C)Cc1ccc(C(C)c2nc3cc(-c4nnn[nH]4)ccc3n2Cc2ccccc2Cl)cc1 (stereo unspecified) | 90.2 | 0 | 320 | > 50 | – |
| CC(C)Cc1ccc(C(C)c2nc3c(CC(=O)O)cccc3n2Cc2ccccc2Cl)cc1 (stereo unspecified) | 99.3 | 49.3 | > 1000 | > 50 | inhibition [6]: 50% |
| CC(C)Cc1ccc(C(C)c2nc3cc(C#N)ccc3n2Cc2ccccc2Cl)cc1 (stereo unspecified) | – | – | – | > 50 | – |
| CC(C)Cc1ccc(C(C)c2nc3cc(S(N)(=O)=O)ccc3n2Cc2ccccc2Cl)cc1 (stereo unspecified) | 77.8 | 16.8 | 280 | > 50 | – |
| CC(C)Cc1ccc(C(C)c2nc3cc(-c4n[nH]c(=S)o4)ccc3n2Cc2ccccc2Cl)cc1 (stereo unspecified) | 41.4 | 0 | 50 | > 50 | IC50 [7]: 0.6 µM; inhibition [8]: Dose-dependent effect; IC50 (Prostaglandin E synthase): 420 nM; IC50 (Leukotriene C4 synthase): 6.19 µM |
| CC(C)Cc1ccc(C(C)c2nc3cc(-c4nnco4)ccc3n2Cc2ccccc2Cl)cc1 (stereo unspecified) | 63.1 | 0.45 | 90 | < 50 | – |
| CC(C)Cc1ccc(C(C)c2nc3cc(-c4noc(=O)[nH]4)ccc3n2Cc2ccccc2Cl)cc1 (stereo unspecified) | 87.6 | 0.67 | 270 | > 50 | – |
| CC(C)Cc1ccc(C(C)c2nc3cc(-c4nc(C(=O)O)cs4)ccc3n2Cc2ccccc2Cl)cc1 (stereo unspecified) | 72.7 | 1.06 | 150 | > 50 | – |
| C=C(Cc1ccc(-c2cnc(N)nc2)cc1)c1nc2cc(C#N)ccc2n1Cc1ccccc1Cl | – | – | 370 | – | – |
| CC(C)Cc1ccc(C(C)c2nc3cc(-c4ccccc4C(=O)O)ccc3n2Cc2ccccc2Cl)cc1 (stereo unspecified) | 104 | 65 | 1100 | > 50 | – |
| CC(C)Cc1ccc(C(C)c2nc3cc(OC(C)(C)C(=O)O)ccc3n2Cc2ccccc2Cl)cc1 (stereo unspecified) | 75.9 | 5.47 | 200 | > 50 | – |
| CC(c1ccc(CC(C)(C)C)cc1)c1nc2cc(C#N)ccc2n1Cc1ccccc1Cl (stereo unspecified) | 117 | 51.5 | 1700 | – | – |
| CC(C)CCc1ccc(C(C)c2nc3cc(C#N)ccc3n2Cc2ccccc2Cl)cc1 (stereo unspecified) | 118 | 87.2 | 18000 | – | Activity [5]: 66% |
| CC(C)Cc1ccc(C(C)c2nc3cc(C(N)=O)ccc3n2Cc2ccccc2Cl)cc1 (stereo unspecified) | 64 | 0 | 130 | – | – |

| SMILES | Activity [1] [%] | Activity [2] [%] | IC50 [3] [nM] | inhibition [4] [%] | further results |
| --- | --- | --- | --- | --- | --- |
| CC(C)Cc1ccc(C(C)c2nc3cc(-c4n[nH]c(=O)o4)ccc3n2Cc2ccccc2Cl)cc1 (stereo unspecified) | 40.5 | 0.5 | 100 | – | – |
| N#Cc1ccc2c(c1)nc(NCc1ccc3cc[nH]c3c1)n2Cc1ccccc1Cl | 93.6 | 98.5 | > 10000 | – | Activity [5]: 84% |
| CC(=O)N(O)C/C=C/c1cccc(Oc2ccccc2)c1 | – | – | – | – | inhibition [9]: > 70% |
| N#Cc1ccc2c(c1)nc(NCCc1c[nH]c3ccccc13)n2Cc1ccccc1Cl | 97.1 | 99.2 | 8800 | – | Activity [5]: 63% |
| N#Cc1ccc2c(c1)nc(CCc1ccc(-c3cnc(N)nc3)cc1)n2Cc1ccccc1Cl | 85.5 | 8.3 | 370 | < 50 | – |
| CC(C)Cc1ccc(C(C)c2nc3cc(OCC(=O)O)ccc3n2Cc2ccccc2Cl)cc1 (stereo unspecified) | 67.3 | 6.38 | 180 | > 50 | – |
| CCC(C)c1ccc(C(C)c2nc3cc(C#N)ccc3n2Cc2ccccc2Cl)cc1 (stereo unspecified) | 92.1 | 33.6 | 700 | – | – |
| N#Cc1ccc2c(c1)nc(CCc1ccc(-c3ccc(N)nc3)cc1)n2Cc1ccccc1Cl | 76.1 | 1.4 | 250 | – | – |
| CC(C)Cc1ccc(C(C)c2nc3cc(C(N)=S)ccc3n2Cc2ccccc2Cl)cc1 (stereo unspecified) | 63.1 | 0.45 | 160 | – | – |
| Cc1nc(-c2ccc3c(c2)nc(C(C)c2ccc(CC(C)C)cc2)n3Cc2ccccc2Cl)no1 (stereo unspecified) | 79 | 1.9 | 180 | – | – |
| CC(C)c1ccc2c(c1)c(SC(C)(C)C)c(CC(C)(C)C(=O)O)n2Cc1ccc(Cl)cc1 | – | – | – | – | IC50 [7]: 3 µM |
| CC(C)Cc1ccc(C(C)c2nc3cc(-c4cccc(C(=O)O)c4)ccc3n2Cc2ccccc2Cl)cc1 (stereo unspecified) | 33 | 0 | 74 | > 50 | – |
| CC(C)Cc1ccc(C(C)c2nc3c(CCC(=O)O)cccc3n2Cc2ccccc2Cl)cc1 (stereo unspecified) | 85 | 1 | 190 | > 50 | – |
| CC(Cc1ccc(-c2cnc(N)nc2)cc1)c1nc2cc(C#N)ccc2n1Cc1ccccc1Cl (stereo unspecified) | 84.1 | 4.2 | 420 | < 50 | – |
| CC(C)Oc1ccc(-c2nc3cc(C#N)ccc3n2Cc2ccccc2Cl)cc1 | 93.7 | 68.4 | – | – | – |
| CC(C)Cc1ccc(C(C)c2nc3c(C(=O)O)cccc3n2Cc2ccccc2Cl)cc1 (stereo unspecified) | 85 | 85 | 400 | – | – |
| CC(C)Cc1ccc(C(C)c2nc3cc(-c4ccc(C(=O)O)cc4)ccc3n2Cc2ccccc2Cl)cc1 (stereo unspecified) | 3.73 | 0 | 40 | > 50 | IC50 [7]: 3.2 µM; inhibition [8]: Dose-dependent effect; IC50 (Prostaglandin E synthase): 2100 nM; IC50 (Leukotriene C4 synthase): 15.9 µM |
| CC(C)Cc1ccc(-c2nc3cc(C#N)ccc3n2Cc2ccccc2Cl)cc1 | 93 | 74.3 | – | – | – |
